Test [1] addresses Phosphatidylinositol 4,5-bisphosphate 3-kinase catalytic subunit alpha isoform (Homo sapiens, UniProt P42336). As to the kind of experiment: Inhibition of PI3Kalpha (unknown origin) by ADP-Glo luminescent kinase assay. (ADP-Glo turns the ADP formed in a reaction into a luminescent signal.)
Test [2] deals with MDA-MB-231. The test is described as follows: Antiproliferative activity against human MDA-MB-231 cells assessed as reduction in cell viability incubated for 24 to 48 hrs by CCK-8 assay. Format: functional, cell-based. In general terms: Tetrazolium dyes change colour on reduction, which living cells bring about.
Test [3] concerns SW-620. As to the kind of experiment: Antiproliferative activity against human SW-620 cells assessed as reduction in cell viability incubated for 24 to 48 hrs by CCK-8 assay. Format: functional, cell-based.
The subject of test [4] is HCT-116. The test is described as follows: Antiproliferative activity against human HCT-116 cells assessed as reduction in cell viability incubated for 24 to 48 hrs by CCK-8 assay. The class given is functional, cell-based.
The test system of test [5] is MCF7. The test is described as follows: Antiproliferative activity against human MCF7 cells assessed as reduction in cell viability incubated for 24 to 48 hrs by CCK-8 assay. Format: functional, cell-based.
Test [6] has as its target Phosphatidylinositol 4,5-bisphosphate 3-kinase catalytic subunit gamma isoform (Homo sapiens, UniProt P48736). The test is described as follows: Inhibition of PI3Kgamma (unknown origin) by ADP-Glo luminescent kinase assay.
Test [7] has as its target T1, Phosphatidylinositol 4,5-bisphosphate 3-kinase catalytic subunit delta isoform (Homo sapiens, UniProt O00329).
T1 sequence (O00329 whole entry): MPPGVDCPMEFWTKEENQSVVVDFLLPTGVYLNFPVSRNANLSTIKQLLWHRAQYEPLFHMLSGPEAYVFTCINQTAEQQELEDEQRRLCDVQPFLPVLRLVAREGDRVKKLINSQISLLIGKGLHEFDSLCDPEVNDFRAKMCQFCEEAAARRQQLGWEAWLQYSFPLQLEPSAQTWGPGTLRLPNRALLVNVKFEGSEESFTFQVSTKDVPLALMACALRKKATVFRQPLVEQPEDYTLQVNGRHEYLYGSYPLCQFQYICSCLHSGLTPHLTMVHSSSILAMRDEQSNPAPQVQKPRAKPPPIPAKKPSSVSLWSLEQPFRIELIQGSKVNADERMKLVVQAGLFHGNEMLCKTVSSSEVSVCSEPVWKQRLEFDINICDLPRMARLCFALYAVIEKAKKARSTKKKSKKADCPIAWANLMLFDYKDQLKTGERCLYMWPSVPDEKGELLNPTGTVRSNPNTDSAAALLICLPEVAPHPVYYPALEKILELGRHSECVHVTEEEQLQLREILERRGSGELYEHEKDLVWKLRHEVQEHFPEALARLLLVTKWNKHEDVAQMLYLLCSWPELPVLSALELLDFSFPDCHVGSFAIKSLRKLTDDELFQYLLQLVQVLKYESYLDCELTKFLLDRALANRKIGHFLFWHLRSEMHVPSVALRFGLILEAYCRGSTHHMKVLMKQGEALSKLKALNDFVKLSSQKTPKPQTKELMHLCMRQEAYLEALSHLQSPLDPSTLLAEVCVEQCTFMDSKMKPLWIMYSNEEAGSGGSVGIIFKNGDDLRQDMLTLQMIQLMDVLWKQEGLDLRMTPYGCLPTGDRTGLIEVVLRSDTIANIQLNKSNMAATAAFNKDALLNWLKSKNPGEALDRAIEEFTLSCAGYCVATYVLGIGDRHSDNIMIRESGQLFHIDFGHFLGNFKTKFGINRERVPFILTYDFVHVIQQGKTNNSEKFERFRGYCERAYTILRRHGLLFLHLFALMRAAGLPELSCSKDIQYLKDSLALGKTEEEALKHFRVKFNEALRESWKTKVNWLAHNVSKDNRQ
The test is described as follows: Inhibition of PI3Kdelta (unknown origin) by ADP-Glo luminescent kinase assay.

The target in test [8] is Phosphatidylinositol 4,5-bisphosphate 3-kinase catalytic subunit beta isoform (Homo sapiens, UniProt P42338). As to the kind of experiment: Inhibition of PI3Kbeta (unknown origin) by ADP-Glo luminescent kinase assay.
Sequence of Phosphatidylinositol 4,5-bisphosphate 3-kinase catalytic subunit beta isoform (P42338 whole entry, canonical isoform): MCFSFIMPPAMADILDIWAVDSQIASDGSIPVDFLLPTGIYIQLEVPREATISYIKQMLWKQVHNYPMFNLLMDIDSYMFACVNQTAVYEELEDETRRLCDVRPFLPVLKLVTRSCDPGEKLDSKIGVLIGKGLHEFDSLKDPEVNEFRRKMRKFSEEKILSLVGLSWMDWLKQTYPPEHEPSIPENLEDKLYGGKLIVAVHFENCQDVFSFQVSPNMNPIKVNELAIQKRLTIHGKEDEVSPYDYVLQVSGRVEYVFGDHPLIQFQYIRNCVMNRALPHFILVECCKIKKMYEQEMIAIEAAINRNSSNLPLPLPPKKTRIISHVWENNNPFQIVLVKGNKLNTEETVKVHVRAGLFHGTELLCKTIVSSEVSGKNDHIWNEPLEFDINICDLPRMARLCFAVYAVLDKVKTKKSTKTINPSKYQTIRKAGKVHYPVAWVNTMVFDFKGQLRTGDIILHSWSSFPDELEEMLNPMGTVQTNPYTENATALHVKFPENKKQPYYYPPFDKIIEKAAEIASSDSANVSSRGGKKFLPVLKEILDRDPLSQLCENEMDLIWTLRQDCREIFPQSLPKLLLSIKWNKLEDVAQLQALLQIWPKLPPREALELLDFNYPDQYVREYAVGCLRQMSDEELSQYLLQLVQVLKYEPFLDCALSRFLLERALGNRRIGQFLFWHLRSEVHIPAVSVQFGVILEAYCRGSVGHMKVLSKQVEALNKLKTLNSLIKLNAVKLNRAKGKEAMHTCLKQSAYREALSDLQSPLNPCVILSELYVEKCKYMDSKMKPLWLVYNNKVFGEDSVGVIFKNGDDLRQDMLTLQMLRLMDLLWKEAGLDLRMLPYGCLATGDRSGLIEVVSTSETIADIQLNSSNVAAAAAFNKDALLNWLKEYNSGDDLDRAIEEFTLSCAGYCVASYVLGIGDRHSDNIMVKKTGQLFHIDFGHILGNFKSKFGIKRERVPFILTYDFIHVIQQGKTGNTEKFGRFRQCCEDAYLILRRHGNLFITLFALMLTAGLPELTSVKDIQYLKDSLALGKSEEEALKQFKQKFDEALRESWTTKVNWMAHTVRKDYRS

Sequence of Phosphatidylinositol 4,5-bisphosphate 3-kinase catalytic subunit alpha isoform (P42336 whole entry, canonical isoform): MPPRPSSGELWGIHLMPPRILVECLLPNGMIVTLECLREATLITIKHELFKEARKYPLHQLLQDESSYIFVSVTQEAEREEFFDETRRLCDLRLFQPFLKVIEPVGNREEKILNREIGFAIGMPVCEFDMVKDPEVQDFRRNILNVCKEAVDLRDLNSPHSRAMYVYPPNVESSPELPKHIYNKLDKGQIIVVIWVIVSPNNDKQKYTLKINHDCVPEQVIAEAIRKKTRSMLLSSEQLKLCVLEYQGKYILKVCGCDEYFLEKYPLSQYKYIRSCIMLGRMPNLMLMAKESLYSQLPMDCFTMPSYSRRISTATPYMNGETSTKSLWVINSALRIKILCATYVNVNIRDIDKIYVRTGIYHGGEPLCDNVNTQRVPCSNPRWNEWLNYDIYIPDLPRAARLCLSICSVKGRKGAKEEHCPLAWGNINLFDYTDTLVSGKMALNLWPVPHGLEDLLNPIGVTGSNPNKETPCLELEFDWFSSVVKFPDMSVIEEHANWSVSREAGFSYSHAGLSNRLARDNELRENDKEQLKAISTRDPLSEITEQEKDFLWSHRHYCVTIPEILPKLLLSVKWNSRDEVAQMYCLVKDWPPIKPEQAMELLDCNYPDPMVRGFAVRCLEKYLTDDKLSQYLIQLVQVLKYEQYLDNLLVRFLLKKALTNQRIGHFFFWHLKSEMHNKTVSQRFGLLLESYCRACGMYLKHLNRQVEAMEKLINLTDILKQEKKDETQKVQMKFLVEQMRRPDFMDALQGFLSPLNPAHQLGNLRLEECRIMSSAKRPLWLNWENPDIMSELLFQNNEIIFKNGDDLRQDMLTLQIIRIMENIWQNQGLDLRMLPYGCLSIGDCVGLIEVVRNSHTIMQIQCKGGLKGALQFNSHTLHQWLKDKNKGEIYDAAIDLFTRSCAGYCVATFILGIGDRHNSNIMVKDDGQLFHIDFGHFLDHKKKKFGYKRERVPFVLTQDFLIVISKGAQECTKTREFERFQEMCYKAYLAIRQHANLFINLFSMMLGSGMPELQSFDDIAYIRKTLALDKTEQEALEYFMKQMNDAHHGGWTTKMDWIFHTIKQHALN
Sequence of Phosphatidylinositol 4,5-bisphosphate 3-kinase catalytic subunit gamma isoform (P48736 whole entry, canonical isoform): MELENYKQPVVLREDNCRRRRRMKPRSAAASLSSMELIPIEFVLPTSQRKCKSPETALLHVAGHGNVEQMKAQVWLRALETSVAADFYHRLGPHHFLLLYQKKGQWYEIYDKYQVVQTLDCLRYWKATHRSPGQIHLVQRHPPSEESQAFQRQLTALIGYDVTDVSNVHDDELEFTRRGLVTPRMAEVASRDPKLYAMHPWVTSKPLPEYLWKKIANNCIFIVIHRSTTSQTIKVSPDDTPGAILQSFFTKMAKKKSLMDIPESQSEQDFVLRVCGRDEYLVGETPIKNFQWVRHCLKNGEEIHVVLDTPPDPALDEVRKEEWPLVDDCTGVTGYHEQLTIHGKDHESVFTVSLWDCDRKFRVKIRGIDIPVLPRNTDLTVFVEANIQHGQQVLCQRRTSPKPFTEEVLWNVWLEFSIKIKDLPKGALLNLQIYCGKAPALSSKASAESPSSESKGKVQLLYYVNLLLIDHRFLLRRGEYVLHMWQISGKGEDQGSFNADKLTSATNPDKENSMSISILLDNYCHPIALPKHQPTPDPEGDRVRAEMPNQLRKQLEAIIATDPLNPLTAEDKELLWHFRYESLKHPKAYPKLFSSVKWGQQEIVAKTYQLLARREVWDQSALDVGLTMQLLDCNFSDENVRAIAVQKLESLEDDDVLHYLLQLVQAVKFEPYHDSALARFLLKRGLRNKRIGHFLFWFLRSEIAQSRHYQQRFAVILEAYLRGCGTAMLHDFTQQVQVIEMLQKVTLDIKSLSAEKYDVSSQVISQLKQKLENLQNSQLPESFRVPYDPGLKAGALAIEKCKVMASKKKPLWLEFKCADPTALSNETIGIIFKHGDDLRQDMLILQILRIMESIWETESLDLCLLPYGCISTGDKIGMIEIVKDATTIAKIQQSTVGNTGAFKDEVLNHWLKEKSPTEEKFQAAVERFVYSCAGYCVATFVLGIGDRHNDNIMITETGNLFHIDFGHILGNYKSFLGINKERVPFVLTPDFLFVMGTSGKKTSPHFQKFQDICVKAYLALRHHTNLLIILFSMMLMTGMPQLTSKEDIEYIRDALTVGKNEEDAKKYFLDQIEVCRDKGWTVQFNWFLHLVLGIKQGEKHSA

Consider `Nc1nc2cc(-c3ccc4ncc(N5C[C@@H]6OCCO[C@H]6C5)nc4c3)ccc2o1`, for which the IC50 in test [1] was 0.603 µM.
Take `CN(C)C1CCN(C(=O)c2cnc3ccc(-c4ccc5oc(N)nc5c4)cn23)C1` (stereo unspecified): the IC50 was 12.3 µM in test [2]; 11 µM in test [3]; 6.05 µM in test [4]; 0.0108 µM in test [1]; 15.1 µM in test [5].
For the compound `Nc1nc2cc(-c3ccc4ncc(C(=O)N5CCNCC5)n4c3)ccc2o1`, in test [1], the IC50 is 0.138 µM.
As to `C[C@H](NC(=O)c1cnc2ccc(-c3ccc4oc(N)nc4c3)cn12)C(N)=O`, the IC50 in test [2] worked out at 20.8 µM; in test [6], 0.233 µM; in test [7] it was 0.115 µM; in test [3], 11.3 µM; in test [4] it was 7.05 µM; in test [8] it was 0.818 µM. Moreover, the IC50 in test [1] amounted to 0.0046 µM; in test [5], 1.81 µM.
`Nc1nc2cc(-c3ccc4nc(N5C[C@@H]6OCCO[C@@H]6C5)cnc4c3)ccc2o1`: in test [1], 1.64 µM corresponded to half-maximal inhibition (IC50).
For `CCOC(=O)[C@H](C)NC(=O)c1cnc2ccc(-c3ccc4oc(N)nc4c3)cn12`, the IC50 is over 100 µM in test [2]; over 100 µM in test [3]; over 100 µM in test [4]; over 10 µM in test [1]; over 100 µM in test [5].
Take `NC(=O)[C@H](NC(=O)c1cnc2ccc(-c3ccc4oc(N)nc4c3)cn12)c1ccccc1`: the IC50 in test [2] is over 100 µM; in test [3] it was 49.9 µM; in test [4], 7.3 µM; in test [1], 0.0231 µM; in test [5], 12.2 µM.
For the compound `Nc1nc2cc(-c3ccc4ncc(C(=O)N5C[C@@H]6OCCO[C@@H]6C5)n4c3)ccc2o1`, the IC50 in test [2] amounted to 12.4 µM; in test [3], 7.16 µM; in test [4] it was 5.31 µM; in test [1] it was 0.0072 µM; in test [5] it was 2.28 µM.
In the case of `NC(=O)CNc1cnc2cc(-c3ccc4oc(N)nc4c3)ccc2n1`, in test [1], the IC50 came out at 0.476 µM.
As for `NC(=O)CNc1cnc2ccc(-c3ccc4oc(N)nc4c3)cc2n1`, the IC50 in test [2] was found to be 10.2 µM; in test [3], 24.9 µM; in test [4] it was 4.56 µM; in test [1], 0.0038 µM; in test [5], 5.59 µM.
For `NC(=O)[C@H](Cc1ccc(O)cc1)NC(=O)c1cnc2ccc(-c3ccc4oc(N)nc4c3)cn12` the same measures were over 100 µM, 28.8 µM, over 100 µM, 3.52 µM and 14.7 µM.
On the same counts, the results for `Nc1nc2ccc(-c3ccc4ncc(C(=O)N5CCOC(CO)C5)n4c3)cc2o1` (single isomer, unassigned) are 17.2 µM, over 100 µM, 14.5 µM, 0.0186 µM and 19 µM.
For `CN(C)C1CCN(C(=O)c2cnc3ccc(-c4ccc5oc(N)nc5c4)cn23)CC1` the same measures were over 100 µM, 32 µM, 4.03 µM, 0.0282 µM and 3.36 µM.
On to `CCC(NC(=O)c1cnc2ccc(-c3ccc4oc(N)nc4c3)cn12)C(=O)OC` (stereo unspecified), for which the IC50 is over 100 µM in test [2]; over 100 µM in test [3]; over 100 µM in test [4]; 0.807 µM in test [1]; over 100 µM in test [5].
Regarding `NC(=O)CNc1ncnc2ccc(-c3ccc4oc(N)nc4c3)cc12`, in test [1], the midpoint of inhibition, the IC50, lay at 0.0255 µM.
As to `Nc1nc2cc(-c3ccc4ncc(C(=O)N5C[C@H]6OCCO[C@@H]6C5)n4c3)ccc2o1` (single isomer, unassigned), the IC50 in test [2] amounted to 10.8 µM; in test [3], 13.5 µM; in test [4], 7.95 µM; in test [1], 0.0088 µM; in test [5] it was 5.89 µM.
For `NC(=O)[C@H](Cc1ccccc1)NC(=O)c1cnc2ccc(-c3ccc4oc(N)nc4c3)cn12` the same measures were 18.2 µM, 8.4 µM, 7.72 µM, 0.0112 µM and 18.8 µM.
As to `NC(=O)[C@@H](NC(=O)c1cnc2ccc(-c3ccc4oc(N)nc4c3)cn12)c1ccccc1`, the IC50 amounted to 21 µM in test [2]; 17.1 µM in test [3]; 9.39 µM in test [4]; 0.014 µM in test [1]; 9.83 µM in test [5].
On the same counts, the results for `C[C@H](Nc1cnc2ccc(-c3ccc4oc(N)nc4c3)cc2n1)C(N)=O` are 15.3 µM, 60.2 µM, 25.4 µM, 0.499 µM and 10.5 µM.
`C[C@H](NC(=O)c1cnc2ccc(-c3ccc4oc(N)nc4c3)cn12)C(=O)O` displayed an IC50 in test [1] of over 10 µM.
`C[C@@H](NC(=O)c1cnc2ccc(-c3ccc4oc(N)nc4c3)cn12)C(N)=O`: the IC50 in test [2] was over 100 µM; in test [3], over 100 µM; in test [4], over 100 µM; in test [1], over 10 µM; in test [5] it was 36.1 µM.
Regarding `NC(=O)C(NC(=O)c1cnc2ccc(-c3ccc4oc(N)nc4c3)cn12)c1ccccc1` (stereo unspecified), the IC50 in test [2] is over 100 µM; in test [3] it was 37.8 µM; in test [4], 34 µM; in test [1], 0.0193 µM; in test [5] it was 16.2 µM.
On the same counts, the results for `C[C@H](Nc1ncnc2ccc(-c3ccc4oc(N)nc4c3)cc12)C(N)=O` are over 100 µM, over 100 µM, over 100 µM, 0.0185 µM and over 100 µM.
As for `NC(=O)[C@@H]1CCCN1C(=O)c1cnc2ccc(-c3ccc4oc(N)nc4c3)cn12`, the IC50 came to 25 µM in test [2]; 12 µM in test [3]; 10 µM in test [4]; 0.0181 µM in test [1]; 2.18 µM in test [5].
With `COC1CCN(C(=O)c2cnc3ccc(-c4ccc5oc(N)nc5c4)cn23)C1` (stereo unspecified), the midpoint of inhibition in test [1], the IC50, lay at 9.68 µM.
The compound `Nc1nc2cc(-c3ccc4ncc(NCC(=O)NO)nc4c3)ccc2o1` showed an IC50 in test [1] of 0.107 µM.

In general, IC50 refers to the concentration needed to halve the response being measured.

These data come from ChEMBL document CHEMBL5634096, “Design, synthesis and bioevaluation of PI3Kα-selective inhibitors as potential colorectal cancer drugs” (Eur J Med Chem, 2023).
